In article PMC4904262 (ACS Medicinal Chemistry Letters, 2016):

Key:
[1] = molecular target: TIE2 (Homo sapiens, UniProt Q02763); details: 1 µM, ATP at Km
[2] = molecular target: NEK2 (Homo sapiens, UniProt P51955); details: 1 µM, ATP at Km
[3] = molecular target: JNK1ALPHA1 (Homo sapiens, UniProt P45983); details: 1 µM, ATP at Km
[4] = molecular target: ARG (Homo sapiens, UniProt P42684); details: 1 µM, ATP at Km
[5] = molecular target: RSK3 (Homo sapiens, UniProt Q15349); details: 1 µM, ATP at Km
[6] = molecular target: LOK (Homo sapiens, UniProt O94804); details: 1 µM, ATP at Km
[7] = molecular target: MLK1 (Homo sapiens, UniProt P80192); details: 1 µM, ATP at Km
[8] = molecular target: MSK2 (Homo sapiens, UniProt O75676); details: 1 µM, ATP at Km
[9] = molecular target: ZIPK (Homo sapiens, UniProt O43293); details: 1 µM, ATP at Km
[10] = molecular target: SRC (Homo sapiens, UniProt P12931); details: 1 µM, ATP at Km
[11] = molecular target: JNK2ALPHA2 (Homo sapiens, UniProt P45984); details: 1 µM, ATP at Km
[12] = molecular target: MTOR/FKBP12 (Homo sapiens, UniProt P42345); details: 1 µM, ATP at Km
[13] = molecular target: MARK1 (Homo sapiens, UniProt Q9P0L2); details: 1 µM, ATP at Km
[14] = molecular target: PLK3 (Homo sapiens, UniProt Q9H4B4); details: 1 µM, ATP at Km
[15] = molecular target: ROCK-II (Homo sapiens, UniProt O75116); details: 1 µM, ATP at Km
[16] = molecular target: MKK6 (Homo sapiens, UniProt P52564); details: 1 µM, ATP at Km
[17] = molecular target: STK33 (Homo sapiens, UniProt Q9BYT3); details: 1 µM, ATP at Km
[18] = molecular target: IKKBETA (Homo sapiens, UniProt O14920); details: 1 µM, ATP at Km
[19] = molecular target: FGFR1 (Homo sapiens, UniProt P11362); details: 1 µM, ATP at Km
[20] = molecular target: HASPIN (Homo sapiens, UniProt Q8TF76); details: 1 µM, ATP at Km
[21] = molecular target: […] (Homo sapiens, UniProt P16234); details: 1 µM, ATP at Km
[22] = molecular target: DAPK2 (Homo sapiens, UniProt Q9UIK4); details: 1 µM, ATP at Km
[23] = molecular target: CKIT (Homo sapiens, UniProt P10721); details: 1 µM, ATP at Km
[24] = molecular target: PIM-1 (Homo sapiens, UniProt P11309); details: 1 µM, ATP at Km
[25] = molecular target: CAMKIV (Homo sapiens, UniProt Q16566); details: 1 µM, ATP at Km
[26] = molecular target: EPHB2 (Homo sapiens, UniProt P29323); details: 1 µM, ATP at Km
[27] = molecular target: CAMKI (Homo sapiens, UniProt Q14012); details: 1 µM, ATP at Km
[28] = molecular target: NEK7 (Homo sapiens, UniProt Q8TDX7); details: 1 µM, ATP at Km
[29] = molecular target: ULK2 (Homo sapiens, UniProt Q8IYT8); details: 1 µM, ATP at Km
[30] = molecular target: SYK (Homo sapiens, UniProt P43405); details: 1 µM, ATP at Km
[31] = molecular target: CK2ALPHA2 (Homo sapiens, UniProt P19784); details: 1 µM, ATP at Km
[32] = molecular target: RET (Homo sapiens, UniProt P07949); details: 1 µM, ATP at Km
[33] = molecular target: YES (Homo sapiens, UniProt P07947); details: 1 µM, ATP at Km
[34] = molecular target: MST3 (Homo sapiens, UniProt Q9Y6E0); details: 1 µM, ATP at Km
[35] = tested on: MLCK; details: 1 µM, ATP at Km
[36] = molecular target: JNK3 (Homo sapiens, UniProt P53779); details: 1 µM, ATP at Km
[37] = molecular target: HCK (Homo sapiens, UniProt P08631); details: HCK (first listing, page 8); 1 µM; ATP at Km
[38] = molecular target: PIM-3 (Homo sapiens, UniProt Q86V86); details: 1 µM, ATP at Km
[39] = molecular target: ROCK-I (Homo sapiens, UniProt Q13464); details: 1 µM, ATP at Km
[40] = molecular target: FGR (Homo sapiens, UniProt P09769); details: 1 µM, ATP at Km
[41] = molecular target: CK1DELTA (Homo sapiens, UniProt P48730); details: 1 µM, ATP at Km
[42] = molecular target: FAK (Homo sapiens, UniProt Q05397); details: 1 µM, ATP at Km
[43] = molecular target: PKCZETA (Homo sapiens, UniProt Q05513); details: 1 µM, ATP at Km
[44] = molecular target: MRCKALPHA (Homo sapiens, UniProt Q5VT25); details: 1 µM, ATP at Km
[45] = molecular target: SIK (Homo sapiens, UniProt P57059); details: 1 µM, ATP at Km

Sequence of MSK2 (O75676 whole entry): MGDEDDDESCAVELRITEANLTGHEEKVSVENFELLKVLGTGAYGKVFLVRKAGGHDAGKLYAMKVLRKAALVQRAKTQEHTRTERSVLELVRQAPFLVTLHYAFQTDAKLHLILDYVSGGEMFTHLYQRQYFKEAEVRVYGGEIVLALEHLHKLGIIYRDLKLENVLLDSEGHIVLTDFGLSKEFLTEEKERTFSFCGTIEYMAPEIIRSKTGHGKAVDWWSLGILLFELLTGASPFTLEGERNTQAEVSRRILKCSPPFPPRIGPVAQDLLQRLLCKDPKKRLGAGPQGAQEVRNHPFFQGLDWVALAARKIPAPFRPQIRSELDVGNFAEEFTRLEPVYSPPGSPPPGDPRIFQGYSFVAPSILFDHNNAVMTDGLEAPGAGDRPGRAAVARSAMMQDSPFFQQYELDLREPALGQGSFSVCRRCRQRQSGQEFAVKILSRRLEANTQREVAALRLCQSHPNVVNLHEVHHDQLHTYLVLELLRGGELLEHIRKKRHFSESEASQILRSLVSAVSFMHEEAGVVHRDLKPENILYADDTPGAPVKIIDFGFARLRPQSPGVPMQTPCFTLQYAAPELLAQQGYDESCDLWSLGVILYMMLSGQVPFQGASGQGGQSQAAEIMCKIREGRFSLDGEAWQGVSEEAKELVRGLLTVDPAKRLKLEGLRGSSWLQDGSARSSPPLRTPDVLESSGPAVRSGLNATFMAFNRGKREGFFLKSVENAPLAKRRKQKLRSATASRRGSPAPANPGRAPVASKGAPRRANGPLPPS
Sequence of FGR (P09769 whole entry): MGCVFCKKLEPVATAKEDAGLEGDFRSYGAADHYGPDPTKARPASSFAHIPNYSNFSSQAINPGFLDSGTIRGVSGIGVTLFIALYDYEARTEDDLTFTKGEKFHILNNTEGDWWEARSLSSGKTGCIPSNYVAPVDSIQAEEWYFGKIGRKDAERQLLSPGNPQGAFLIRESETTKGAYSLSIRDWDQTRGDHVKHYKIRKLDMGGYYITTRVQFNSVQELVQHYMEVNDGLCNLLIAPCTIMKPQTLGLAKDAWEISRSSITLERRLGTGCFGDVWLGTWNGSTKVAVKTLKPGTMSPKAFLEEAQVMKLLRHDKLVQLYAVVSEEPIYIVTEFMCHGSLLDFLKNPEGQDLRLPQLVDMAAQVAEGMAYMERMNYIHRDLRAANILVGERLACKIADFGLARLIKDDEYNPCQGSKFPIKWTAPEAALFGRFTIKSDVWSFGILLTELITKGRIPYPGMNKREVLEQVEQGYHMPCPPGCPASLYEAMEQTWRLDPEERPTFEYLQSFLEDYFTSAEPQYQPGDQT
Sequence of DAPK2 (Q9UIK4 whole entry): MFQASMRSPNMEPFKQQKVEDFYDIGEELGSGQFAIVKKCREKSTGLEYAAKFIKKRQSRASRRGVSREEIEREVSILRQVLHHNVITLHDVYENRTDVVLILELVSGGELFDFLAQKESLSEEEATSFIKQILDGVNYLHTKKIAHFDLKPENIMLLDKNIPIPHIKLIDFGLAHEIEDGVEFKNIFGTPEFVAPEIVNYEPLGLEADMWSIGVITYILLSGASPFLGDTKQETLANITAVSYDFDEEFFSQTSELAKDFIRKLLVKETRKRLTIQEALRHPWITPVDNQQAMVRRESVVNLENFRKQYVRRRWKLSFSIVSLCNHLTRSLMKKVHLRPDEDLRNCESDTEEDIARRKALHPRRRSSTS
Sequence of LOK (O94804 whole entry): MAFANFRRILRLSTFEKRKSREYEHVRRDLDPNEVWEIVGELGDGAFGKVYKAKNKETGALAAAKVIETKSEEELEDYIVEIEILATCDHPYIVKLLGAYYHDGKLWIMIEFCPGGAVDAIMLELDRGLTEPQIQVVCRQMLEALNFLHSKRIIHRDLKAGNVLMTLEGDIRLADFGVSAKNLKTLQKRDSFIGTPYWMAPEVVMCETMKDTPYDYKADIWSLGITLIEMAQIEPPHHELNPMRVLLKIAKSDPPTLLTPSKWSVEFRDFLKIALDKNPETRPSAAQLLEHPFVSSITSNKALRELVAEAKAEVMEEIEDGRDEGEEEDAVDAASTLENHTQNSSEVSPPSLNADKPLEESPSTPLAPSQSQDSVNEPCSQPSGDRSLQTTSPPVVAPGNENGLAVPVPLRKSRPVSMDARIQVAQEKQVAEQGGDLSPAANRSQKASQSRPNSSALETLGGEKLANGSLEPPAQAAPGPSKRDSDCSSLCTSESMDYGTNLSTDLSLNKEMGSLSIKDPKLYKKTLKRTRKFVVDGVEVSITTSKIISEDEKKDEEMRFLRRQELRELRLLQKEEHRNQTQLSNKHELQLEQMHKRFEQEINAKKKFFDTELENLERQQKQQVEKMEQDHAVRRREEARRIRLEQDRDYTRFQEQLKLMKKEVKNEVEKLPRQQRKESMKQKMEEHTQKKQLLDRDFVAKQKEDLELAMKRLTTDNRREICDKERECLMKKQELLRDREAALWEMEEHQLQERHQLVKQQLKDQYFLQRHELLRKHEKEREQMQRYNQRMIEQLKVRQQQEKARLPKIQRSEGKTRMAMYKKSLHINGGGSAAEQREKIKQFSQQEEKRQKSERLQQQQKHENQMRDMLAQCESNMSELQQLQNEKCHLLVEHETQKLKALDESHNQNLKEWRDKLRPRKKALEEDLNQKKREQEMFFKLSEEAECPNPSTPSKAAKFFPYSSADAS
Sequence of ULK2 (Q8IYT8 whole entry): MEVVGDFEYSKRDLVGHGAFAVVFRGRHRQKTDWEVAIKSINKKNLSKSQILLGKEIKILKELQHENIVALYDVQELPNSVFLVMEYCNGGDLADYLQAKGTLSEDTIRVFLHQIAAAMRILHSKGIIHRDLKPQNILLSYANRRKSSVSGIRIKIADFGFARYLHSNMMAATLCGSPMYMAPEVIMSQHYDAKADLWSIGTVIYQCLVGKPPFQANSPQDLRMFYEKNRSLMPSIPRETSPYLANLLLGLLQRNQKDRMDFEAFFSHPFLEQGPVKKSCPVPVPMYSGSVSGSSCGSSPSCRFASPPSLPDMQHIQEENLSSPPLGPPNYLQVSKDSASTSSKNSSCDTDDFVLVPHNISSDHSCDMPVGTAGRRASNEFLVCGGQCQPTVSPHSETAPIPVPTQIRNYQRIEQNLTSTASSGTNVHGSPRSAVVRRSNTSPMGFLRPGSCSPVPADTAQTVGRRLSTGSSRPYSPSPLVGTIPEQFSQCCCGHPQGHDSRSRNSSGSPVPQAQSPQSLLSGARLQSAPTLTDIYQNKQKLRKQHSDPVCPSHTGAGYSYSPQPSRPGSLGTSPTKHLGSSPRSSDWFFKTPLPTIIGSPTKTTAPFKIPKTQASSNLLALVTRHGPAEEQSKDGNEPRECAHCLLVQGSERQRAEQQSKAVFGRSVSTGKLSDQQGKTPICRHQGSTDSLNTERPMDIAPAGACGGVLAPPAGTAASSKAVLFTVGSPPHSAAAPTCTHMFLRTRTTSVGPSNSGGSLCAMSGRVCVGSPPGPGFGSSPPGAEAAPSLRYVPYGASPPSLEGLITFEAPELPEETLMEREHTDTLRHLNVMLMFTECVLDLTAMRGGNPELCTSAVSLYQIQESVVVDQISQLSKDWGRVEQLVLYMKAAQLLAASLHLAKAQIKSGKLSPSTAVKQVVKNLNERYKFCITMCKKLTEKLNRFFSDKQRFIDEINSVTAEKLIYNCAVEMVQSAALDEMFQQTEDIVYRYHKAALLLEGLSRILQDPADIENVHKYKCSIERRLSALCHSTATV
Sequence of ROCK-I (Q13464 whole entry): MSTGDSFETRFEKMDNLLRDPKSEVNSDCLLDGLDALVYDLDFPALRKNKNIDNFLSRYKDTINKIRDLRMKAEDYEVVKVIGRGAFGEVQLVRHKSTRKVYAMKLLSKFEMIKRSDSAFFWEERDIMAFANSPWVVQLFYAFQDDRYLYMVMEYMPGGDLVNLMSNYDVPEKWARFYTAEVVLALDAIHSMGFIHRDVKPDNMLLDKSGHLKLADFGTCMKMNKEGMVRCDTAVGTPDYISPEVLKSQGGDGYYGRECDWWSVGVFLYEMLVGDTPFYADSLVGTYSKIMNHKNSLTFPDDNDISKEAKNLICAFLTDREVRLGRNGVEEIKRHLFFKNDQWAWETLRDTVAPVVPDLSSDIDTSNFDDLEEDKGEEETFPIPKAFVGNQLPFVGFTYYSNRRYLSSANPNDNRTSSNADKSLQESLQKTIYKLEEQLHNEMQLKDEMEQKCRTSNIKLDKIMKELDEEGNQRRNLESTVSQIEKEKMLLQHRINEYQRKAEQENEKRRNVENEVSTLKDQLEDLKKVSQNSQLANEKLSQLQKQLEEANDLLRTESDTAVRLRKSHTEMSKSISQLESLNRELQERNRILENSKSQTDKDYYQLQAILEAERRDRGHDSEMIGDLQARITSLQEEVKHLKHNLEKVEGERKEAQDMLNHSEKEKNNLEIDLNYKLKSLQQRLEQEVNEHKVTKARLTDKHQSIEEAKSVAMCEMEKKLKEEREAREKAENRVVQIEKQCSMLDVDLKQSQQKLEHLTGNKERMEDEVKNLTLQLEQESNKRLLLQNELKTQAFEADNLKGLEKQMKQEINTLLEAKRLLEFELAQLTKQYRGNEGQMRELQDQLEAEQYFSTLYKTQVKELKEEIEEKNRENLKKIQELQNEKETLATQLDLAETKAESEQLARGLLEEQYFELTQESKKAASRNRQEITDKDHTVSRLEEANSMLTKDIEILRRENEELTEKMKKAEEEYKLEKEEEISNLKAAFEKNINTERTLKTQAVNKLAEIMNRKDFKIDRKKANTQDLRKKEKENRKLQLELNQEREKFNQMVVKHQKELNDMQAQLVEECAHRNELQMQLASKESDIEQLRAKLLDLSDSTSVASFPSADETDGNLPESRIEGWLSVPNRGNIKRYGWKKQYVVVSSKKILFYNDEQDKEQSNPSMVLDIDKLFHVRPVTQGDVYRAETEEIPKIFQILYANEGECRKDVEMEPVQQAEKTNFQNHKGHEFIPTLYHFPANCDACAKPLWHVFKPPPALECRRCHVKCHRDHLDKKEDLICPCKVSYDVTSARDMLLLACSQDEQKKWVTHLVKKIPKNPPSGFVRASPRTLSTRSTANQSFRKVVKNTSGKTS

## COC1CN(C(=O)c2ccc3c(N)ncc(-c4ccc(-c5cnn(C)c5)cc4)c3c2)C1 [Compound 59]
[1]
  percentage effect: -18%
[2]
  percentage effect: -9%
[3]
  percentage effect: -11%
[4]
  percentage effect: -7%
[5]
  percentage effect: 4%
[6]
  percentage effect: 1%
[7]
  percentage effect: -30%
[8]
  percentage effect: -12%
[9]
  percentage effect: -5%
[10]
  percentage effect: -6%
[11]
  percentage effect: 2%
[12]
  percentage effect: 4%
[13]
  percentage effect: -14%
[14]
  percentage effect: 5%
[15]
  percentage effect: -12%
[16]
  percentage effect: -14%
[17]
  percentage effect: 1%
[18]
  percentage effect: 8%
[19]
  percentage effect: 11%
[20]
  percentage effect: -12%
[21]
  percentage effect: 11%
[22]
  percentage effect: 12%
[23]
  percentage effect: -3%
[24]
  percentage effect: -13%
[25]
  percentage effect: 23%
[26]
  percentage effect: 24%
[27]
  percentage effect: -5%
[28]
  percentage effect: -26%
[29]
  percentage effect: 8%
[30]
  percentage effect: -11%
[31]
  percentage effect: 13%
[32]
  percentage effect: 6%
[33]
  percentage effect: -18%
[34]
  percentage effect: -34%
[35]
  percentage effect: -20%
[36]
  percentage effect: -8%
[37]
  percentage effect: -3%
[38]
  percentage effect: 9%
[39]
  percentage effect: 2%
[40]
  percentage effect: 7%
[41]
  percentage effect: -10%
[42]
  percentage effect: -18%
[43]
  percentage effect: -13%
[44]
  percentage effect: 0%
[45]
  percentage effect: -5%

## COC1CN(C(=O)c2ccc3c(N)ncc(-c4ccc(-c5cnn(C)c5)cc4)c3n2)C1 [Compound 51]
[1]
  percentage effect: -6%
[2]
  percentage effect: -5%
[3]
  percentage effect: -4%
[4]
  percentage effect: 11%
[5]
  percentage effect: 4%
[6]
  percentage effect: 3%
[7]
  percentage effect: -3%
[8]
  percentage effect: 7%
[9]
  percentage effect: 25%
[10]
  percentage effect: 7%
[11]
  percentage effect: -6%
[12]
  percentage effect: -4%
[13]
  percentage effect: -5%
[14]
  percentage effect: -9%
[15]
  percentage effect: -2%
[16]
  percentage effect: -4%
[17]
  percentage effect: -15%
[18]
  percentage effect: -14%
[19]
  percentage effect: 10%
[20]
  percentage effect: -7%
[21]
  percentage effect: -3%
[22]
  percentage effect: 5%
[23]
  percentage effect: 1%
[24]
  percentage effect: -10%
[25]
  percentage effect: -17%
[26]
  percentage effect: 7%
[27]
  percentage effect: -10%
[28]
  percentage effect: -6%
[29]
  percentage effect: 4%
[30]
  percentage effect: -10%
[31]
  percentage effect: 0%
[32]
  percentage effect: -2%
[33]
  percentage effect: -22%
[34]
  percentage effect: 7%
[35]
  percentage effect: 0%
[36]
  percentage effect: -33%
[37]
  percentage effect: -6%
[38]
  percentage effect: -9%
[39]
  percentage effect: 32%
[40]
  percentage effect: 19%
[41]
  percentage effect: 1%
[42]
  percentage effect: 3%
[43]
  percentage effect: 4%
[44]
  percentage effect: 2%
[45]
  percentage effect: -3%
